Patent US10800777B2, “Polymorphic forms of VENCLEXTA” (Mylan Laboratories Limited, priority 2016, dated 2020)
Entries after “also recorded” stand apart in the source; their conditions may differ. Blank lines part the entries; values can stand above or below the compound they belong to.

Assay: Storage stability of venetoclax polymorphs, analyzed by PXRD for polymorph integrity
Type: physicochemical
Description: The present invention provides new polymorphs of venetoclax which may be characterized by powder X-ray diffraction (PXRD). Thus, samples of each disclosed polymorph were analyzed by PXRD on a BRUKER D-8 Discover powder diffractometer equipped with a goniometer of θ/2θ configuration and Lynx Eye detector. The Cu-anode X-ray tube was operated at 40 kV and 30 mA. The experiments were conducted over the […] of 2.0°-50.0°, 0.030° step size, and 0.4 seconds step time.
Thus, the stability of samples of amorphous venetoclax, as well as crystalline forms M9, M10, and M21 were stored at 40° C./75% relative humidity (RH) and at 25° C./60% relative humidity (RH) for 3 months. The samples were analyzed by PXRD for polymorph integrity.

PXRD (polymorph integrity) (at 25° C./60% RH, Initial, listed as M10): Crystalline | PXRD (polymorph integrity) (at 40° C./75% RH, Initial, listed as M10): Crystalline
SMILES: CC1(C)CCC(CN2CCN(c3ccc(C(=O)NS(=O)(=O)c4ccc(NCC5CCOCC5)c([N+](=O)[O-])c4)c(Oc4cnc5[nH]ccc5c4)c3)CC2)=C(c2ccc(Cl)cc2)C1 [form M10, 4-[4-[[2-(4-chlorophenyl)-4,4-dimethylcyclohexen-1-yl]methyl]piperazin-1-yl]-N-[3-nitro-4-(oxan-4-ylmethylamino)phenyl]sulfonyl-2-(1H-pyrrolo[2,3-b]pyridin-5-yloxy)benzamide]
PXRD (polymorph integrity) (at 25° C./60% RH, 3 months, listed as M10): no change in PXRD pattern; also recorded: Stable | PXRD (polymorph integrity) (at 40° C./75% RH, 3 months, listed as M10): no change in PXRD pattern; also recorded: Stable

PXRD (polymorph integrity) (at 25° C./60% RH, Initial, listed as M21): Crystalline | PXRD (polymorph integrity) (at 40° C./75% RH, Initial, listed as M21): Crystalline
SMILES: CC1(C)CCC(CN2CCN(c3ccc(C(=O)NS(=O)(=O)c4ccc(NCC5CCOCC5)c([N+](=O)[O-])c4)c(Oc4cnc5[nH]ccc5c4)c3)CC2)=C(c2ccc(Cl)cc2)C1 [form M21, 4-[4-[[2-(4-chlorophenyl)-4,4-dimethylcyclohexen-1-yl]methyl]piperazin-1-yl]-N-[3-nitro-4-(oxan-4-ylmethylamino)phenyl]sulfonyl-2-(1H-pyrrolo[2,3-b]pyridin-5-yloxy)benzamide]
PXRD (polymorph integrity) (at 25° C./60% RH, 3 months, listed as M21): no change in PXRD pattern; also recorded: Stable | PXRD (polymorph integrity) (at 40° C./75% RH, 3 months, listed as M21): no change in PXRD pattern; also recorded: Stable

PXRD (polymorph integrity) (at 25° C./60% RH, 1 months): Stable | PXRD (polymorph integrity) (at 25° C./60% RH, 2 months): Stable | PXRD (polymorph integrity) (at 25° C./60% RH, 3 months): Stable | PXRD (polymorph integrity) (at 25° C./60% RH, 3 months, listed as amorphous venetoclax): no change in PXRD pattern | PXRD (polymorph integrity) (at 25° C./60% RH, 15 days): Stable | PXRD (polymorph integrity) (at 25° C./60% RH, Initial): Amorphous | PXRD (polymorph integrity) (at 40° C./75% RH, 1 months): Stable | PXRD (polymorph integrity) (at 40° C./75% RH, 2 months): Stable | PXRD (polymorph integrity) (at 40° C./75% RH, 3 months): Stable | PXRD (polymorph integrity) (at 40° C./75% RH, 3 months, listed as amorphous venetoclax): no change in PXRD pattern | PXRD (polymorph integrity) (at 40° C./75% RH, 15 days): Stable | PXRD (polymorph integrity) (at 40° C./75% RH, Initial): Amorphous
SMILES: CC1(C)CCC(CN2CCN(c3ccc(C(=O)NS(=O)(=O)c4ccc(NCC5CCOCC5)c([N+](=O)[O-])c4)c(Oc4cnc5[nH]ccc5c4)c3)CC2)=C(c2ccc(Cl)cc2)C1 [Amorphous, 4-[4-[[2-(4-chlorophenyl)-4,4-dimethylcyclohexen-1-yl]methyl]piperazin-1-yl]-N-[3-nitro-4-(oxan-4-ylmethylamino)phenyl]sulfonyl-2-(1H-pyrrolo[2,3-b]pyridin-5-yloxy)benzamide]

PXRD (polymorph integrity) (at 25° C./60% RH, Initial, listed as M9): Crystalline | PXRD (polymorph integrity) (at 40° C./75% RH, Initial, listed as M9): Crystalline
SMILES: CC1(C)CCC(CN2CCN(c3ccc(C(=O)NS(=O)(=O)c4ccc(NCC5CCOCC5)c([N+](=O)[O-])c4)c(Oc4cnc5[nH]ccc5c4)c3)CC2)=C(c2ccc(Cl)cc2)C1 [form M9, 4-[4-[[2-(4-chlorophenyl)-4,4-dimethylcyclohexen-1-yl]methyl]piperazin-1-yl]-N-[3-nitro-4-(oxan-4-ylmethylamino)phenyl]sulfonyl-2-(1H-pyrrolo[2,3-b]pyridin-5-yloxy)benzamide]
PXRD (polymorph integrity) (at 25° C./60% RH, 3 months, listed as M9): no change in PXRD pattern; also recorded: Stable | PXRD (polymorph integrity) (at 40° C./75% RH, 3 months, listed as M9): no change in PXRD pattern; also recorded: Stable
